Test results published in patent publication US10787452B2 (Vertex Pharmaceuticals Incorporated, priority 2012, dated 2020).

Tested on: HCT116 colorectal cancer cells
Assay: Cisplatin sensitization assay (96 h cell viability MTS);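 note: compound concentration needed to lower the Cisplatin-alone IC50 by a set fold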
Type: cell-based
Conditions: 96 h MTS, compound plus Cisplatin
Description: Compounds can be screened for their ability to sensitize HCT116 colorectal cancer cells to Cisplatin using a 96 h cell viability (MTS) assay. […] Compounds and Cisplatin are then both added simultaneously to the cell media in 2-fold serial dilutions from a top final concentration of 10 μM as a full matrix of concentrations in a final cell volume of 200 μl, and the cells are then incubated at 37° C. in 5% CO2. After 96 h, 40 μl of MTS reagent (Promega G358a) is added to each well and the cells are incubated for 1 h at 37° C. in 5% CO2.

Row | Structure (SMILES) | Cisplatin Sensitization Assay
1 | N#CC1(C(=O)N2CCC(c3ccncc3NC(=O)c3c(N)nn4cc(F)cnc34)CC2)CC1 [I-C-71, 2-amino-N-(4-(1-(1-cyanocyclopropanecarbonyl)piperidin-4-yl)pyridin-3-yl)-6-fluoropyrazolo[1,5-a]pyrimidine-3-carboxamide] | +++ (Compounds with a Cisplatin sensitization value of <0.02 μM are marked with “+++.”)
2 | Nc1nn2cc(F)cnc2c1C(=O)Nc1cncc(Cl)c1N1CCN2CCN(C3COC3)CC2C1 (stereo not drawn) [I-N-38, 2-amino-N-(5-chloro-4-(8-(oxetan-3-yl)hexahydro-1H-pyrazino[1,2-a]pyrazin-2(6H)-yl)pyridin-3-yl)-6-fluoropyrazolo[1,5-a]pyrimidine-3-carboxamide] | ++ (Compounds with a Cisplatin sensitization value >0.02 μM but <0.2 μM are marked with “++.”)
3 | Nc1nn2cc(F)cnc2c1C(=O)Nc1cnccc1N1CCN2[C@@H](CCS2(=O)=O)C1 [I-N-247, (S)-2-amino-N-(4-(1,1-dioxidotetrahydro-2H-isothiazolo[2,3-a]pyrazin-5(3H)-yl)pyridin-3-yl)-6-fluoropyrazolo[1,5-a]pyrimidine-3-carboxamide] | +++ (Compounds with a Cisplatin sensitization value of <0.02 μM are marked with “+++.”)
4 | CN1CCN(C(=O)c2ccc(-c3ccncc3NC(=O)c3c(N)nn4cc(F)cnc34)cn2)CC1 [I-C-19, 2-amino-6-fluoro-N-(6-(4-methylpiperazine-1-carbonyl)-[3,4′-bipyridin]-3′-yl)pyrazolo[1,5-a]pyrimidine-3-carboxamide] | ++ (Compounds with a Cisplatin sensitization value >0.02 μM but <0.2 μM are marked with “++.”)
5 | N#CCc1cnc2c(C(=O)Nc3cnccc3OC3CNC3)c(N)nn2c1 [I-O-82, 2-amino-N-(4-(azetidin-3-yloxy)pyridin-3-yl)-6-(cyanomethyl)pyrazolo[1,5-a]pyrimidine-3-carboxamide] | ++ (Compounds with a Cisplatin sensitization value >0.02 μM but <0.2 μM are marked with “++.”)
6 | Nc1nn2cc(F)cnc2c1C(=O)Nc1cnccc1-c1ccc(C(=O)N2CCC(N3CCC3)CC2)nc1 [I-C-54, 2-amino-N-(6-(4-(azetidin-1-yl)piperidine-1-carbonyl)-[3,4′-bipyridin]-3′-yl)-6-fluoropyrazolo[1,5-a]pyrimidine-3-carboxamide] | +++ (Compounds with a Cisplatin sensitization value of <0.02 μM are marked with “+++.”)
7 | CN1CCN(C(=O)C2CCN(c3c(F)cncc3NC(=O)c3c(N)nn4cc(F)cnc34)CC2)CC1(C)C [I-G-15, 2-amino-6-fluoro-N-(5-fluoro-4-(4-(3,3,4-trimethylpiperazine-1-carbonyl)piperidin-1-yl)pyridin-3-yl)pyrazolo[1,5-a]pyrimidine-3-carboxamide] | +++ (Compounds with a Cisplatin sensitization value of <0.02 μM are marked with “+++.”)
8 | N#CCc1cnc2c(C(=O)Nc3cnccc3OC3CCCC3)c(N)nn2c1 [I-O-43, 2-amino-6-(cyanomethyl)-N-(4-(cyclopentyloxy)pyridin-3-yl)pyrazolo[1,5-a]pyrimidine-3-carboxamide] | +++ (Compounds with a Cisplatin sensitization value of <0.02 μM are marked with “+++.”)
9 | Cn1nccc1-c1ccncc1NC(=O)c1c(N)nn2cc(F)cnc12 [I-C-57, 2-amino-6-fluoro-N-(4-(1-methyl-1H-pyrazol-5-yl)pyridin-3-yl)pyrazolo[1,5-a]pyrimidine-3-carboxamide] | +++ (Compounds with a Cisplatin sensitization value of <0.02 μM are marked with “+++.”)
10 | C[N+]1([O-])CCN(C(=O)C2CCN(c3c(F)cncc3NC(=O)c3c(N)nn4cc(F)cnc34)CC2)CC1 [I-G-95, 4-(1-(3-(2-amino-6-fluoropyrazolo[1,5-a]pyrimidine-3-carboxamido)-5-fluoropyridin-4-yl)piperidine-4-carbonyl)-1-methylpiperazine 1-oxide] | +++ (Compounds with a Cisplatin sensitization value of <0.02 μM are marked with “+++.”)
11 | Nc1nn2cc(Cl)cnc2c1C(=O)Nc1cnccc1O[C@H]1CCCNC1 [I-O-74, (S)-2-amino-6-chloro-N-(4-(piperidin-3-yloxy)pyridin-3-yl)pyrazolo[1,5-a]pyrimidine-3-carboxamide] | ++ (Compounds with a Cisplatin sensitization value >0.02 μM but <0.2 μM are marked with “++.”)
12 | Nc1nn2cc(F)cnc2c1C(=O)Nc1cnccc1N1CCN2CCC[C@H]2C1 [I-N-21, (S)-2-amino-6-fluoro-N-(4-(hexahydropyrrolo[1,2-a]pyrazin-2(1H)-yl)pyridin-3-yl)pyrazolo[1,5-a]pyrimidine-3-carboxamide] | +++ (Compounds with a Cisplatin sensitization value of <0.02 μM are marked with “+++.”)
13 | Nc1nn2cc(F)cnc2c1C(=O)Nc1cncc(F)c1N1CCC(C(=O)N2CC3CNCC3C2)CC1 (stereo not drawn) [I-G-51, 2-amino-6-fluoro-N-(5-fluoro-4-(4-(octahydropyrrolo[3,4-c]pyrrole-2-carbonyl)piperidin-1-yl)pyridin-3-yl)pyrazolo[1,5-a]pyrimidine-3-carboxamide] | +++ (Compounds with a Cisplatin sensitization value of <0.02 μM are marked with “+++.”)
14 | CN(C)C(=O)C1CCN(c2c(F)cncc2NC(=O)c2c(N)nn3cc(F)cnc23)CC1 [I-G-29, 2-amino-N-(4-(4-(dimethylcarbamoyl)piperidin-1-yl)-5-fluoropyridin-3-yl)-6-fluoropyrazolo[1,5-a]pyrimidine-3-carboxamide] | +++ (Compounds with a Cisplatin sensitization value of <0.02 μM are marked with “+++.”)
15 | Nc1nn2cc(F)cnc2c1C(=O)Nc1cncc(F)c1N1CCN(CC(=O)N2CCC2)CC1 [I-N-228, 2-amino-N-(4-(4-(2-(azetidin-1-yl)-2-oxoethyl)piperazin-1-yl)-5-fluoropyridin-3-yl)-6-fluoropyrazolo[1,5-a]pyrimidine-3-carboxamide] | +++ (Compounds with a Cisplatin sensitization value of <0.02 μM are marked with “+++.”)
16 | Nc1nn2cc(F)cnc2c1C(=O)Nc1cnccc1OC1CCC(C(=O)O)CC1 (stereo not drawn) [I-O-8, 4-((3-(2-amino-6-fluoropyrazolo[1,5-a]pyrimidine-3-carboxamido)pyridin-4-yl)oxy)cyclohexanecarboxylic acid] | + (Compounds with a Cisplatin sensitization value >0.2 μM but <5 μM are marked with “+.”)
17 | CN(C)[C@H]1CCN(c2ccncc2NC(=O)c2c(N)nn3cc(Cl)cnc23)C[C@@H]1O [I-N-35, 2-amino-6-chloro-N-(4-((3S,4S)-4-(dimethylamino)-3-hydroxypiperidin-1-yl)pyridin-3-yl)pyrazolo[1,5-a]pyrimidine-3-carboxamide] | + (Compounds with a Cisplatin sensitization value >0.2 μM but <5 μM are marked with “+.”)
18 | CCN1CCN(c2ccncc2NC(=O)c2c(N)nn3cc(F)cnc23)CC1 [I-N-17, 2-amino-N-(4-(4-ethylpiperazin-1-yl)pyridin-3-yl)-6-fluoropyrazolo[1,5-a]pyrimidine-3-carboxamide] | +++ (Compounds with a Cisplatin sensitization value of <0.02 μM are marked with “+++.”)
19 | Nc1nn2cc(F)cnc2c1C(=O)Nc1cncc(F)c1N1CCCC1 [I-N-246, 2-amino-6-fluoro-N-(5-fluoro-4-(pyrrolidin-1-yl)pyridin-3-yl)pyrazolo[1,5-a]pyrimidine-3-carboxamide] | ++ (Compounds with a Cisplatin sensitization value >0.02 μM but <0.2 μM are marked with “++.”)
20 | Cc1cncnc1-c1ccncc1NC(=O)c1c(N)nn2cc(F)cnc12 [I-C-67, 2-amino-6-fluoro-N-(4-(5-methylpyrimidin-4-yl)pyridin-3-yl)pyrazolo[1,5-a]pyrimidine-3-carboxamide] | ++ (Compounds with a Cisplatin sensitization value >0.02 μM but <0.2 μM are marked with “++.”)
21 | C[C@@H]1CN(C(=O)C2CCN(c3c(F)cncc3NC(=O)c3c(N)nn4cc(F)cnc34)CC2)CCN1 [I-G-45, (R)-2-amino-6-fluoro-N-(5-fluoro-4-(4-(3-methylpiperazine-1-carbonyl)piperidin-1-yl)pyridin-3-yl)pyrazolo[1,5-a]pyrimidine-3-carboxamide] | +++ (Compounds with a Cisplatin sensitization value of <0.02 μM are marked with “+++.”)
22 | CS(=O)(=O)C1CCN(c2c(Cl)cncc2NC(=O)c2c(N)nn3cc(F)cnc23)C1 (stereo not drawn) [I-N-287, 2-amino-N-(5-chloro-4-(3-(methylsulfonyl)pyrrolidin-1-yl)pyridin-3-yl)-6-fluoropyrazolo[1,5-a]pyrimidine-3-carboxamide] | +++ (Compounds with a Cisplatin sensitization value of <0.02 μM are marked with “+++.”)
23 | Cn1c(-c2ccncc2NC(=O)c2c(N)nn3cc(F)cnc23)cccc1=O [I-C-58, 2-amino-6-fluoro-N-(1-methyl-6-oxo-1,6-dihydro-[2,4′-bipyridin]-3′-yl)pyrazolo[1,5-a]pyrimidine-3-carboxamide] | +++ (Compounds with a Cisplatin sensitization value of <0.02 μM are marked with “+++.”)
24 | CN1CC(OC2CCN(c3ccncc3NC(=O)c3c(N)nn4cc(F)cnc34)CC2)C1 [I-N-164, 2-amino-6-fluoro-N-(4-(4-((1-methylazetidin-3-yl)oxy)piperidin-1-yl)pyridin-3-yl)pyrazolo[1,5-a]pyrimidine-3-carboxamide] | +++ (Compounds with a Cisplatin sensitization value of <0.02 μM are marked with “+++.”)
